In PubChem BioAssay (NCI):
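Dose response: 5 concentrations. Exposure: 48 h. Format: 96-well plates. Endpoint: linear interpolation; highest concentration if not reached. At the TGI there is no net growth.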

Experiments:
Assay in all cases: NCI tumour cell line growth inhibition, 48 h
[1] = tested on: 786-0 renal
[2] = tested on: HCC-2998 colon
[3] = tested on: MDA-N
[4] = tested on: SK-OV-3 ovarian
[5] = tested on: SK-MEL-5 melanoma
[6] = tested on: CAKI-1 renal
[7] = tested on: LOX IMVI melanoma
[8] = tested on: SR leukemia
[9] = tested on: A498 renal
[10] = tested on: OVCAR-3 ovarian
[11] = tested on: HOP-92 NSCLC
[12] = tested on: DU-145 prostate
[13] = tested on: COLO 205 colon
[14] = tested on: SN12C renal
[15] = tested on: KM12 colon
[16] = tested on: K-562 leukemia
[17] = tested on: MALME-3M melanoma
[18] = tested on: SF-295 CNS
[19] = tested on: HS 578T breast
[20] = tested on: OVCAR-8 ovarian
[21] = tested on: HCT-116 colon
[22] = tested on: M14 melanoma
[23] = tested on: RXF 393 renal
[24] = tested on: SNB-75 CNS
[25] = tested on: HCT-15 colon
[26] = tested on: NCI/ADR-RES ovarian
[27] = tested on: NCI-H460 lung
[28] = tested on: BT-549 breast
[29] = tested on: CCRF-CEM leukemia
[30] = tested on: MOLT-4 leukemia
[31] = tested on: PC-3 prostate
[32] = tested on: MCF7 breast
[33] = tested on: RPMI-8226 leukemia
[34] = tested on: T-47D breast
[35] = tested on: NCI-H23 lung
[36] = tested on: NCI-H226 lung
[37] = tested on: UO-31 renal
[38] = tested on: A549 NSCLC
[39] = tested on: SF-539 CNS
[40] = tested on: OVCAR-4 ovarian
[41] = tested on: U251 CNS
[42] = tested on: SK-MEL-2 melanoma
[43] = tested on: TK-10 renal
[44] = tested on: OVCAR-5 ovarian
[45] = tested on: SK-MEL-28 melanoma
[46] = tested on: EKVX NSCLC
[47] = tested on: UACC-257 melanoma
[48] = tested on: ACHN renal
[49] = tested on: SNB-19 CNS
[50] = tested on: NCI-H522 lung
[51] = tested on: HT29 colon
[52] = tested on: SF-268 CNS
[53] = tested on: SW-620 colon
[54] = tested on: MDA-MB-231 breast
[55] = tested on: UACC-62 melanoma
[56] = tested on: HOP-62 NSCLC
[57] = tested on: IGROV1 ovarian
[58] = tested on: MDA-MB-435
[59] = tested on: HL-60(TB) leukemia

**Q.** For `Cc1cnc2[nH]c(-c3sccc3C)cc(=O)c2c1`, which TGI [1] is on record?
**A.** > 100 µM

**Q.** What about the TGI [2] of the same compound?
**A.** 96.8 µM

**Q.** What about the TGI [3] of the same compound?
**A.** 2.96 µM

**Q.** And the TGI [4]?
**A.** > 100 µM

**Q.** What about the TGI [5] of the same compound?
**A.** 21.7 µM

**Q.** And the TGI [6]?
**A.** > 100 µM

**Q.** And the TGI [7]?
**A.** > 100 µM

**Q.** And the TGI [8]?
**A.** > 100 µM

**Q.** And the TGI [9]?
**A.** > 100 µM

**Q.** And the TGI [10]?
**A.** > 100 µM

**Q.** And the TGI [11]?
**A.** > 100 µM

**Q.** And the TGI [12]?
**A.** > 100 µM

**Q.** What about the TGI [13] of the same compound?
**A.** > 25.5 µM

**Q.** What about the TGI [14] of the same compound?
**A.** > 100 µM

**Q.** What about the TGI [15] of the same compound?
**A.** > 51.3 µM

**Q.** What about the TGI [16] of the same compound?
**A.** > 100 µM

**Q.** What about the TGI [17] of the same compound?
**A.** > 100 µM

**Q.** And the TGI [18]?
**A.** > 100 µM

**Q.** And the TGI [19]?
**A.** 6.01 µM

**Q.** What about the TGI [20] of the same compound?
**A.** > 100 µM

**Q.** And the TGI [21]?
**A.** > 100 µM

**Q.** What about the TGI [22] of the same compound?
**A.** > 33.4 µM

**Q.** What about the TGI [23] of the same compound?
**A.** > 28.4 µM

**Q.** And the TGI [24]?
**A.** > 100 µM

**Q.** And the TGI [25]?
**A.** > 100 µM

**Q.** And the TGI [26]?
**A.** > 100 µM

**Q.** And the TGI [27]?
**A.** > 100 µM

**Q.** And the TGI [28]?
**A.** > 100 µM

**Q.** And the TGI [29]?
**A.** > 100 µM

**Q.** What about the TGI [30] of the same compound?
**A.** > 84.5 µM

**Q.** And the TGI [31]?
**A.** > 100 µM

**Q.** And the TGI [32]?
**A.** > 100 µM

**Q.** What about the TGI [33] of the same compound?
**A.** > 100 µM

**Q.** What about the TGI [34] of the same compound?
**A.** > 100 µM

**Q.** And the TGI [35]?
**A.** > 100 µM

**Q.** What about the TGI [36] of the same compound?
**A.** 39.3 µM

**Q.** What about the TGI [37] of the same compound?
**A.** > 100 µM

**Q.** And the TGI [38]?
**A.** > 100 µM

**Q.** And the TGI [39]?
**A.** > 91.6 µM

**Q.** What about the TGI [40] of the same compound?
**A.** > 100 µM

**Q.** What about the TGI [41] of the same compound?
**A.** > 100 µM

**Q.** And the TGI [42]?
**A.** > 100 µM

**Q.** And the TGI [43]?
**A.** > 100 µM

**Q.** And the TGI [44]?
**A.** > 100 µM

**Q.** What about the TGI [45] of the same compound?
**A.** > 100 µM

**Q.** And the TGI [46]?
**A.** > 100 µM

**Q.** What about the TGI [47] of the same compound?
**A.** > 100 µM

**Q.** And the TGI [48]?
**A.** > 100 µM

**Q.** And the TGI [49]?
**A.** > 40.8 µM

**Q.** And the TGI [50]?
**A.** 4.49 µM

**Q.** And the TGI [51]?
**A.** 10.3 µM

**Q.** And the TGI [52]?
**A.** > 100 µM

**Q.** What about the TGI [53] of the same compound?
**A.** > 100 µM

**Q.** What about the TGI [54] of the same compound?
**A.** > 100 µM

**Q.** And the TGI [55]?
**A.** > 54.3 µM

**Q.** And the TGI [56]?
**A.** > 100 µM

**Q.** And the TGI [57]?
**A.** > 100 µM

**Q.** With `Cc1cccc2c1C(=O)/C(=C/c1ccccc1C(=O)O)C2` as the compound, how does the TGI [1] read?
**A.** > 100 µM

**Q.** And the TGI [2]?
**A.** > 100 µM

**Q.** What about the TGI [3] of the same compound?
**A.** > 100 µM

**Q.** What about the TGI [5] of the same compound?
**A.** > 100 µM

**Q.** What about the TGI [6] of the same compound?
**A.** > 100 µM

**Q.** What about the TGI [7] of the same compound?
**A.** > 100 µM

**Q.** And the TGI [58]?
**A.** > 100 µM

**Q.** What about the TGI [9] of the same compound?
**A.** > 100 µM

**Q.** What about the TGI [10] of the same compound?
**A.** > 100 µM

**Q.** What about the TGI [11] of the same compound?
**A.** > 100 µM

**Q.** What about the TGI [12] of the same compound?
**A.** > 100 µM

**Q.** And the TGI [13]?
**A.** > 100 µM

**Q.** And the TGI [14]?
**A.** > 100 µM

**Q.** And the TGI [15]?
**A.** > 100 µM

**Q.** What about the TGI [16] of the same compound?
**A.** > 100 µM

**Q.** What about the TGI [17] of the same compound?
**A.** > 100 µM

**Q.** And the TGI [18]?
**A.** > 100 µM

**Q.** What about the TGI [19] of the same compound?
**A.** > 100 µM

**Q.** And the TGI [20]?
**A.** > 100 µM

**Q.** And the TGI [21]?
**A.** > 100 µM

**Q.** And the TGI [22]?
**A.** > 100 µM

**Q.** And the TGI [23]?
**A.** > 100 µM

**Q.** What about the TGI [24] of the same compound?
**A.** > 100 µM

**Q.** What about the TGI [25] of the same compound?
**A.** > 100 µM

**Q.** What about the TGI [26] of the same compound?
**A.** > 100 µM

**Q.** And the TGI [27]?
**A.** > 100 µM

**Q.** And the TGI [28]?
**A.** > 100 µM

**Q.** What about the TGI [29] of the same compound?
**A.** > 100 µM

**Q.** What about the TGI [30] of the same compound?
**A.** > 100 µM

**Q.** What about the TGI [31] of the same compound?
**A.** > 100 µM

**Q.** What about the TGI [32] of the same compound?
**A.** > 100 µM

**Q.** And the TGI [33]?
**A.** > 100 µM

**Q.** What about the TGI [34] of the same compound?
**A.** > 100 µM

**Q.** And the TGI [59]?
**A.** > 100 µM

**Q.** What about the TGI [35] of the same compound?
**A.** > 100 µM

**Q.** And the TGI [36]?
**A.** > 100 µM

**Q.** What about the TGI [37] of the same compound?
**A.** > 100 µM

**Q.** What about the TGI [38] of the same compound?
**A.** > 100 µM

**Q.** And the TGI [39]?
**A.** > 100 µM

**Q.** What about the TGI [40] of the same compound?
**A.** > 100 µM

**Q.** And the TGI [41]?
**A.** > 100 µM

**Q.** And the TGI [42]?
**A.** > 100 µM

**Q.** What about the TGI [43] of the same compound?
**A.** > 100 µM

**Q.** What about the TGI [44] of the same compound?
**A.** > 100 µM

**Q.** What about the TGI [45] of the same compound?
**A.** > 100 µM

**Q.** And the TGI [46]?
**A.** > 100 µM

**Q.** And the TGI [47]?
**A.** > 100 µM

**Q.** What about the TGI [48] of the same compound?
**A.** > 100 µM

**Q.** And the TGI [49]?
**A.** > 100 µM

**Q.** And the TGI [50]?
**A.** > 100 µM

**Q.** And the TGI [51]?
**A.** > 100 µM

**Q.** What about the TGI [52] of the same compound?
**A.** > 100 µM

**Q.** What about the TGI [53] of the same compound?
**A.** > 100 µM

**Q.** And the TGI [55]?
**A.** > 100 µM

**Q.** What about the TGI [56] of the same compound?
**A.** > 100 µM

**Q.** And the TGI [57]?
**A.** > 100 µM
